# Results as given in ChEMBL document CHEMBL1201862, “PubChem BioAssay data set” (2004).
# Active and inactive are the calls of the source.
# What was measured:
# [1] = target: T1, Small ubiquitin-related modifier 1 (Homo sapiens, UniProt P63165); experiment: inhibitors of SUMO1 partner interactions, dose response, biochemical, FRET (AID 624383); format: functional; details: read-out: IC50_Mean
# [2] = target: T1, Small ubiquitin-related modifier 1; experiment: inhibitors of SUMO1 peptide binding, dose response, biochemical, fluorescence polarization, uHTS hits (AID 624382); format: functional; details: read-out: IC50_Mean
# [3] = target: T2, Voltage-gated N-type calcium channel alpha-1B subunit/Amyloid beta A4 precursor protein-binding family A member 1 (Homo sapiens, UniProt Q00975+Q02410); format: protein assay
# [4] = target: T3, Apoptotic protease-activating factor 1 (Homo sapiens, UniProt O14727); experiment: activation of Apaf-1 mediated apoptosis – fluorescent, uHTS hits, dose response (AID 588554); format: functional
# T3 sequence (O14727 whole entry): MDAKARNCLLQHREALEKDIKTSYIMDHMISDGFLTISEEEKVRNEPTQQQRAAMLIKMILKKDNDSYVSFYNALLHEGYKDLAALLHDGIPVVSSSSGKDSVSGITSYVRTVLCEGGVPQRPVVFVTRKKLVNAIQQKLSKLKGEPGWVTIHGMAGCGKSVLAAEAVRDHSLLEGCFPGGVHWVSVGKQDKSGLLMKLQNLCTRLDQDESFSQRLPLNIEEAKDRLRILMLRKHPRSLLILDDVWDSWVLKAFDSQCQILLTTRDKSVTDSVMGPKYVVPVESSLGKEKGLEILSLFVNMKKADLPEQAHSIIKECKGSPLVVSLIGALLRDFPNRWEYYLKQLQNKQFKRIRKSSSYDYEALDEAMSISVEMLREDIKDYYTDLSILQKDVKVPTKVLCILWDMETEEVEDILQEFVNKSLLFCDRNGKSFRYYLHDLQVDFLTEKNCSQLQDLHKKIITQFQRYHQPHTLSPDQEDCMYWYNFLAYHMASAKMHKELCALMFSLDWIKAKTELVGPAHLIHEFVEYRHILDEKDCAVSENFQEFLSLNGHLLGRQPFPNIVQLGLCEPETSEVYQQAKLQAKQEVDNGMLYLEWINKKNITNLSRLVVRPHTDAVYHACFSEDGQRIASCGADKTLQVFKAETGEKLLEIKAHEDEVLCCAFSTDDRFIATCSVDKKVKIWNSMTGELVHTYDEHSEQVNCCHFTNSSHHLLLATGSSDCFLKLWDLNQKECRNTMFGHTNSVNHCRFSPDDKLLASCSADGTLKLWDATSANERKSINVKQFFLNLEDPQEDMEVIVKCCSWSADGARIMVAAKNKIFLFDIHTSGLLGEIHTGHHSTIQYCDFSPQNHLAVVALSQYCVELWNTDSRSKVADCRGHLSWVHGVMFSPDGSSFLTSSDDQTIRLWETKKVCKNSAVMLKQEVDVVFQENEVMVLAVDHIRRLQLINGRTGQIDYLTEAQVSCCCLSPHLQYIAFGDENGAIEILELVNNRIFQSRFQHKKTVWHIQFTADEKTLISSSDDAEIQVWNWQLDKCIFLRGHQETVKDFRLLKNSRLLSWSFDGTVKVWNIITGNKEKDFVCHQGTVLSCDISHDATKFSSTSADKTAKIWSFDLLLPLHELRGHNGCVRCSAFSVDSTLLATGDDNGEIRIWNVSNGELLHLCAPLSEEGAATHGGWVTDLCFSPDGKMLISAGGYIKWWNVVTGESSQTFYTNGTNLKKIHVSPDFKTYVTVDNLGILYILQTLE
# [5] = target: T2, Voltage-gated N-type calcium channel alpha-1B subunit/Amyloid beta A4 precursor protein-binding family A member 1; format: protein assay; remark: listed apart in the source
# [6] = Luminescence Cell-Based Dose Retest to Confirm Inhibitors of Cancer Stem Cells. [Related pubchem assays (depositor defined):AID2717, AID2721]; format: functional; details: Homo sapiens
# [7] = cytotoxicity in HMLE control line with eGFP shRNA, dose response, counter-screen for HMLE_sh_ECad selective toxicity project, cell-based, HMLE_sh_eGFP, luminescence (AID 463074); format: functional, Homo sapiens;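 note: HMLE human mammary epithelial cells expressing control shRNA against eGFP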
# [8] = tested on: HeLa; experiment: HeLa cell cytotoxicity, dose response, cytotoxicity control for MITF activator project, CellTiter-Glo luminescence, cherry-pick samples (AID 540259); format: functional, cell-based; details: Homo sapiens
# [9] = target: Keap1/Nrf2 (Homo sapiens, UniProt Q14145); experiment: Keap1-Nrf2 protein-protein interaction inhibitors, dose response, biochemical, fluorescence polarization, cherry-picked samples (AID 588683)
# [10] = target: T4, ORF 73 (Human herpesvirus 8, UniProt O40947); experiment: inhibitors of C-LANA binding to LBS DNA, dose response, biochemical, fluorescence polarization, cherry-picked samples (AID 504725); design: species or system Human gammaherpesvirus 8;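 note: fluorescence polarization of a labeled DNA duplex reporting LANA DNA binding; potency is for inhibitors that block LANA binding to the DNA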
# T4 sequence (O40947 whole entry): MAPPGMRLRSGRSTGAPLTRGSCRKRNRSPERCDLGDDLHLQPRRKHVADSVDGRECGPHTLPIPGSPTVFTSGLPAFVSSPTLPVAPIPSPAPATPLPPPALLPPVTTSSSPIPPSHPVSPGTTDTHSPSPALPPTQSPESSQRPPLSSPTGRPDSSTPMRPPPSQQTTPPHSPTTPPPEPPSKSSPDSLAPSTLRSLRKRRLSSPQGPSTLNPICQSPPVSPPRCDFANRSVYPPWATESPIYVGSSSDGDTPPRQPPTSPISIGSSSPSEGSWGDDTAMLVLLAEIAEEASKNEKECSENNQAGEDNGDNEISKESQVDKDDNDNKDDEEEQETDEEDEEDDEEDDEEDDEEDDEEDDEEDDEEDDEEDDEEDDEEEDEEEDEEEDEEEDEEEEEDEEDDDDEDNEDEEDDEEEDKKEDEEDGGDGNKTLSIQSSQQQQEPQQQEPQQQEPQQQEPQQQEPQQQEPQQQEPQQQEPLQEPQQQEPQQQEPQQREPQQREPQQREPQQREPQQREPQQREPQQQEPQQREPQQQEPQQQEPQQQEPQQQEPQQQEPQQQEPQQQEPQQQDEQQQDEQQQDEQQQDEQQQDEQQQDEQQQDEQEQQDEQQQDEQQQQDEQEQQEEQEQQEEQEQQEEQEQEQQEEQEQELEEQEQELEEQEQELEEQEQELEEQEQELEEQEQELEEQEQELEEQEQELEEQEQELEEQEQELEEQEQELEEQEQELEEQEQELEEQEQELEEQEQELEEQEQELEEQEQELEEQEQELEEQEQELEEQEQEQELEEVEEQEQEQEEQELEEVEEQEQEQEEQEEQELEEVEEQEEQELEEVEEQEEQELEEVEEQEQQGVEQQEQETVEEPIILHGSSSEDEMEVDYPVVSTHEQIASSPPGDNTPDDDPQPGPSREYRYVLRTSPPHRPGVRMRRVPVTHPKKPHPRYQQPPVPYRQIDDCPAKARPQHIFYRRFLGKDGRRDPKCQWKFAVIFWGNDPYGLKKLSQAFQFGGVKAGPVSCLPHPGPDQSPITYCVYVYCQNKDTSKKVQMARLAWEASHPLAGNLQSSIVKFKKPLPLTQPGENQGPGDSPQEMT
# [11] = target: Beta-arrestin-1 (Homo sapiens, UniProt P49407); experiment: inhibitors of arrestin peptide binding to AP2, dose response, biochemical, cherry pick 1, beta2-adaptin appendage, flow cytometry (AID 588783); format: functional
# [12] = target: T5, Cytochrome P450 1A2 (Homo sapiens, UniProt P05177);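 note: PubChem cytochrome P450 panel assay, CYP1A2 panel member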
# T5 sequence (P05177 whole entry): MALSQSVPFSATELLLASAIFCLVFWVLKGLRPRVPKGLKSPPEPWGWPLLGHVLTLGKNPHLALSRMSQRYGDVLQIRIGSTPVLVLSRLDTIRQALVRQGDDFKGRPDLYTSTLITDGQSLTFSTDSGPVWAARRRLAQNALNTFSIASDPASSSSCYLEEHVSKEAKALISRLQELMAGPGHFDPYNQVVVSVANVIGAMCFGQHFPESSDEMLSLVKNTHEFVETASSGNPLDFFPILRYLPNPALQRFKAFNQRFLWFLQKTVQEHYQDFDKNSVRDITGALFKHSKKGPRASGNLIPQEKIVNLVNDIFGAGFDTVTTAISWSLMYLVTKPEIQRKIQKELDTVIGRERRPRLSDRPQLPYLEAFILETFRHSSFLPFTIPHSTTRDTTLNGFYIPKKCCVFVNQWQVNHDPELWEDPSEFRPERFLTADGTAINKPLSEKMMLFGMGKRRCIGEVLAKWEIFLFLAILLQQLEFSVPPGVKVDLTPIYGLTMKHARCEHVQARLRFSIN
# [13] = target: Cytochrome P450 2D6 (Homo sapiens, UniProt P10635);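 note: CYP2D6 member of a cytochrome P450 panel assay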
# [14] = target: UDP-galactopyranose mutase (Mycobacterium tuberculosis, UniProt P9WIQ1); experiment: Inhibitors of Mycobacterium tuberculosis UDP-galactopyranose mutase (UGM) enzyme Measured in Biochemical System Using Plate Reader - 2105-02_Inhibitor_Dose_CherryPick_Activity. [Related pubchem assays (depositor defined):AID504439]
# [15] = tested on: Candida albicans; experiment: growth inhibition of resistant C. albicans, dose response, CaCi-8, fluconazole, Alamar Blue, dry powder (AID 488807); format: functional, organism-based
# [16] = target: T6, Hexokinase-1 (Homo sapiens, UniProt P19367); experiment: SAR analysis of small molecule inhibitors of hexokinase domain containing I (HKDC1) in the hexokinase 1 selectivity assay. [Related pubchem assays (depositor defined):AID493160, AID493190]; format: functional
# T6 sequence (P19367 whole entry): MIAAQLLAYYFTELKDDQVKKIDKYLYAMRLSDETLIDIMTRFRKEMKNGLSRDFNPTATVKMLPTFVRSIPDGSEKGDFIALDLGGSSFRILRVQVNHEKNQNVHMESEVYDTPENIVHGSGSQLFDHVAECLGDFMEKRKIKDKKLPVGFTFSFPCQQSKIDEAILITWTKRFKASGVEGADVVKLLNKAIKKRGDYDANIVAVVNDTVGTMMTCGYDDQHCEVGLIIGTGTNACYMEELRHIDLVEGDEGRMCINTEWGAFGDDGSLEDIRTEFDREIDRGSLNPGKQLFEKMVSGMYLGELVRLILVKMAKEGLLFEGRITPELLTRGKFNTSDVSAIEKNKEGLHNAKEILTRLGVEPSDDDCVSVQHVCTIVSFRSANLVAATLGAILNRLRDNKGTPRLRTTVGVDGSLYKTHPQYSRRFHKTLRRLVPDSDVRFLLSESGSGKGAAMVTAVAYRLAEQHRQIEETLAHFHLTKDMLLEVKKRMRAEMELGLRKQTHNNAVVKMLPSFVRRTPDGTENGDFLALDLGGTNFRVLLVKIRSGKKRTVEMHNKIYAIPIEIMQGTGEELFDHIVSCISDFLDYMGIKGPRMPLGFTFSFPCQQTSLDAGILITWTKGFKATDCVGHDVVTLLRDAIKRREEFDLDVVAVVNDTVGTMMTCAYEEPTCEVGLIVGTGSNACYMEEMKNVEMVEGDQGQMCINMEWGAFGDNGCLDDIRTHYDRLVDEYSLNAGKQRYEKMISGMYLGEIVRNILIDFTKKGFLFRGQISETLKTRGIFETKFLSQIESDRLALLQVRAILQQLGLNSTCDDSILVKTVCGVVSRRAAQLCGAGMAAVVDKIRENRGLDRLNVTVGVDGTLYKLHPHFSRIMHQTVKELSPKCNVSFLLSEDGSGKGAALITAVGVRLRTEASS
# [17] = target: T7, Hexokinase HKDC1 (Homo sapiens, UniProt Q2TB90); experiment: SAR analysis of small molecule inhibitors of hexokinase domain containing I (HKDC1). [Related pubchem assays (depositor defined):AID493160, AID493190]; format: functional
# T7 sequence (Q2TB90 whole entry): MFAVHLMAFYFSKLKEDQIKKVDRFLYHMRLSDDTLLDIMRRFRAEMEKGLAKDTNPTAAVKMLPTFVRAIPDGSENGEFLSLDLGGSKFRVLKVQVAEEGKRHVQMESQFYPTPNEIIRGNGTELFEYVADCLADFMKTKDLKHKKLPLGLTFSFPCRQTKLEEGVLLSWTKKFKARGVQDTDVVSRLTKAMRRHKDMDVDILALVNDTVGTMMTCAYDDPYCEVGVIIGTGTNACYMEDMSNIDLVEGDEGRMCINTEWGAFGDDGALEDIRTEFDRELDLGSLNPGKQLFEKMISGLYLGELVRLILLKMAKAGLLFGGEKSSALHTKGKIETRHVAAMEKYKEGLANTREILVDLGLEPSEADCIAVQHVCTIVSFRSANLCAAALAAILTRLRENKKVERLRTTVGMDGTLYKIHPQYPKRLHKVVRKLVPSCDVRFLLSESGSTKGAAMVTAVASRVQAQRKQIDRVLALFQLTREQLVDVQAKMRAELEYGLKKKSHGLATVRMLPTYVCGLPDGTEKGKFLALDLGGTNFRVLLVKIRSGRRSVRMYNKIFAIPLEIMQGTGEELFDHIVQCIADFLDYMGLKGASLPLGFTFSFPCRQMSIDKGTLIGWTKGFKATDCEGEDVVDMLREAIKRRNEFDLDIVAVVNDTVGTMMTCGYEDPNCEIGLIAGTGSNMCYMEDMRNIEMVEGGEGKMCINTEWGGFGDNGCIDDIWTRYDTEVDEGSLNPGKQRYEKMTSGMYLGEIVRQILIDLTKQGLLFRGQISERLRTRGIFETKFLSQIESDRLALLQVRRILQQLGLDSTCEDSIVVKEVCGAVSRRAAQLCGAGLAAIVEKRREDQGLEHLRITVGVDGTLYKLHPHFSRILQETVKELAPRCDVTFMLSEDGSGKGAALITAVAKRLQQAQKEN
# T2 sequence (Q00975 whole entry): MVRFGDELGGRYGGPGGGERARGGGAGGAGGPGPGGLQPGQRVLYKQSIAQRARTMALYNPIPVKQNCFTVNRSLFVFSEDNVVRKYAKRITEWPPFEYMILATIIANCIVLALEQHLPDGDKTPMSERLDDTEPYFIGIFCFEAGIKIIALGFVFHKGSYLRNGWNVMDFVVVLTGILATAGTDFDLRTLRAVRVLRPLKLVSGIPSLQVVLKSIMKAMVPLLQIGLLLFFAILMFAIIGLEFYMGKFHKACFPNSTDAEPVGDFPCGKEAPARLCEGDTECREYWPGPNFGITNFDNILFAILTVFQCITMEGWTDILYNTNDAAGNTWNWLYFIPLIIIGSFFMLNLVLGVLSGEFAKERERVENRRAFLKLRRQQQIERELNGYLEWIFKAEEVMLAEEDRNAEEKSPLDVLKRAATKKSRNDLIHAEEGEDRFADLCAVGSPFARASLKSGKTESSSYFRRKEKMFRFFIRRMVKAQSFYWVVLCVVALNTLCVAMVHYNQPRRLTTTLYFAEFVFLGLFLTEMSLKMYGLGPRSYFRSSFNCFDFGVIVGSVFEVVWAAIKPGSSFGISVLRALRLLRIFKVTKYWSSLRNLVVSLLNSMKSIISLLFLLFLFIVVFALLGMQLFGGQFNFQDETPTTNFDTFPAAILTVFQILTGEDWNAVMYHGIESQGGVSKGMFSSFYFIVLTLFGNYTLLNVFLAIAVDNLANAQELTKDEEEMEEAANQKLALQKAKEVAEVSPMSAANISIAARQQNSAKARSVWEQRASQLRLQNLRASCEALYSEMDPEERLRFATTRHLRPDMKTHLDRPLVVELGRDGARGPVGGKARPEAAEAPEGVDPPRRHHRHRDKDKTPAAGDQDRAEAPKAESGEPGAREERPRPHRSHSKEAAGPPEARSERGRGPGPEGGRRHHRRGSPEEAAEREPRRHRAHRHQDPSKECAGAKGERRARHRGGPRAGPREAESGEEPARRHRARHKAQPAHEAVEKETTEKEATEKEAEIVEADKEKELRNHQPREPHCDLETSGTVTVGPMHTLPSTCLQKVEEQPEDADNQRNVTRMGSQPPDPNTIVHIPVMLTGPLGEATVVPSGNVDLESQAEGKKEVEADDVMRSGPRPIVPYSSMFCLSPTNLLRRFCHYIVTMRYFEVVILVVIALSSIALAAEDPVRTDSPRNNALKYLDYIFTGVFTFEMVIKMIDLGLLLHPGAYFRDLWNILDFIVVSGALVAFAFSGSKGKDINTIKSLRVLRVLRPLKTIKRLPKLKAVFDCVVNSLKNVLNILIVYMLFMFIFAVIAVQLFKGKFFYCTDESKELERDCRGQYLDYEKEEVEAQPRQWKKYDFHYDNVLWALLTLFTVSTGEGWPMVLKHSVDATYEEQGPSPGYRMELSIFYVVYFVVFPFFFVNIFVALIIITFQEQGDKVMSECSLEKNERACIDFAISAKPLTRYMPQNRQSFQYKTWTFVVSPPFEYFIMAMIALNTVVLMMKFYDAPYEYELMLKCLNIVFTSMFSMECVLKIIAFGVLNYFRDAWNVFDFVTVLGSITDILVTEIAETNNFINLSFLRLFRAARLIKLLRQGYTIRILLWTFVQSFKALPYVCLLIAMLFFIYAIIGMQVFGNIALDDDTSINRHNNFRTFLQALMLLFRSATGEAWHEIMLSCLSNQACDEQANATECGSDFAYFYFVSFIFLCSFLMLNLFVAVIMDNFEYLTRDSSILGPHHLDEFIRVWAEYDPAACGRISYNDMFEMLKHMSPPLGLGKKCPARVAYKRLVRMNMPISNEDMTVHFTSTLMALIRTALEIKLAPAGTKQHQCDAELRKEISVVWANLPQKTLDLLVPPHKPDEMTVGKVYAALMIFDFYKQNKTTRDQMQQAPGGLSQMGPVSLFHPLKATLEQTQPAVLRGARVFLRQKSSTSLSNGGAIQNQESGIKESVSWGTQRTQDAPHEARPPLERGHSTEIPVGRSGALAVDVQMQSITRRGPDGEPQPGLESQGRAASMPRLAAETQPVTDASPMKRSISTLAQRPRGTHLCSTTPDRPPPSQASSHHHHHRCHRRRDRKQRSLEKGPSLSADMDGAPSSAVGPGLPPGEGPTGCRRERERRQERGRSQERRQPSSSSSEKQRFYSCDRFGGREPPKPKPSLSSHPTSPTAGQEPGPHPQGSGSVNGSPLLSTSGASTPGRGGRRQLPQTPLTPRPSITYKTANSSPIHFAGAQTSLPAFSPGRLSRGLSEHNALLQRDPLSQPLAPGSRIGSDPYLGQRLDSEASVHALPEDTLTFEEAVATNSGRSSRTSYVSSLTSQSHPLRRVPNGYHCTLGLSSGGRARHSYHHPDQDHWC
# T2 sequence (Q02410 whole entry): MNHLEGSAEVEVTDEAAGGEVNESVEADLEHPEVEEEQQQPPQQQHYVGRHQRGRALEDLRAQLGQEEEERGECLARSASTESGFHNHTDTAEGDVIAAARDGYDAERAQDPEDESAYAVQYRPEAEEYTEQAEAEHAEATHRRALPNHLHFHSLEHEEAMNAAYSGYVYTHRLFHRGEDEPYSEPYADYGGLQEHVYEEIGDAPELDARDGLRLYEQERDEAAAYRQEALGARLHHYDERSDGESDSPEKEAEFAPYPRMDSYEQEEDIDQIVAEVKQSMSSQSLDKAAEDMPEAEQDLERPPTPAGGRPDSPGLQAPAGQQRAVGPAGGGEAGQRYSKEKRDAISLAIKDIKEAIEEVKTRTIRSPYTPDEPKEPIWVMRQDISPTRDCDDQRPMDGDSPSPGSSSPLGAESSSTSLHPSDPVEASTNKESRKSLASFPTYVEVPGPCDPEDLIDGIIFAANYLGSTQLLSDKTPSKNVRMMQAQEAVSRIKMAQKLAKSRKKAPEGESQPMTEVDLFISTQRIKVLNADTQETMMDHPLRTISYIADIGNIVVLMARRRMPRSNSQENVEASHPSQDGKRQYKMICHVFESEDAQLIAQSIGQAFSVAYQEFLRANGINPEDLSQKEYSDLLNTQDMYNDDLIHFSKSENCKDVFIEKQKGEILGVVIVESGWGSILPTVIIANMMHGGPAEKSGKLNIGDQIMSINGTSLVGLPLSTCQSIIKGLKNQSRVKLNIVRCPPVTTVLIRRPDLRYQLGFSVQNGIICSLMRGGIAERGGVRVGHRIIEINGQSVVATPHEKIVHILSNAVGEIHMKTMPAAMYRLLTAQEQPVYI
# T1 sequence (P63165 whole entry): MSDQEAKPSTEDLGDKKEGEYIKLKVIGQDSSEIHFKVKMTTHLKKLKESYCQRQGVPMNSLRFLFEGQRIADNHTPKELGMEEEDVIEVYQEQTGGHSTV
# Chain of UDP-galactopyranose mutase (P9WIQ1 whole entry): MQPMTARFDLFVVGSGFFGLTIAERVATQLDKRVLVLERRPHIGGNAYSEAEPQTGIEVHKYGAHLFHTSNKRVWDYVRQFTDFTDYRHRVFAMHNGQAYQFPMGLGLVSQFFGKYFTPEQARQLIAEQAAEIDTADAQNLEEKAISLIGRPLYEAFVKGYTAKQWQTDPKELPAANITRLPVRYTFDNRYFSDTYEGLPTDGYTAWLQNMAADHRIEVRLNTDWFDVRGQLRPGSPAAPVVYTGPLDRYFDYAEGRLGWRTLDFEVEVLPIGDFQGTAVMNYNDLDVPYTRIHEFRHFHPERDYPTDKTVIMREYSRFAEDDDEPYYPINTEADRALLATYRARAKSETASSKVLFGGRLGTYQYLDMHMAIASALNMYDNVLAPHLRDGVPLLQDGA
# Chain of Beta-arrestin-1 (P49407 whole entry): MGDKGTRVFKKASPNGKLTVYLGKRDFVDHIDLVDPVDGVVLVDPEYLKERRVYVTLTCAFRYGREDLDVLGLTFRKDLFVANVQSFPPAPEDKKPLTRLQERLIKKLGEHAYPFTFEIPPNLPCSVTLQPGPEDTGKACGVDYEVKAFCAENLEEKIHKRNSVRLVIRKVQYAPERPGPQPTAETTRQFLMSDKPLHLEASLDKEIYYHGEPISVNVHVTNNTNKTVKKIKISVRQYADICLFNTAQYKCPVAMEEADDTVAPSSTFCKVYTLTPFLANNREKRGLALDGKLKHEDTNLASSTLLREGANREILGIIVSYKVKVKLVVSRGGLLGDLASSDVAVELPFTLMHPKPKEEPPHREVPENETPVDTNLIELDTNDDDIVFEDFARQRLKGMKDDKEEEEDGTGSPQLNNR
# Chain of Cytochrome P450 2D6 (P10635 whole entry): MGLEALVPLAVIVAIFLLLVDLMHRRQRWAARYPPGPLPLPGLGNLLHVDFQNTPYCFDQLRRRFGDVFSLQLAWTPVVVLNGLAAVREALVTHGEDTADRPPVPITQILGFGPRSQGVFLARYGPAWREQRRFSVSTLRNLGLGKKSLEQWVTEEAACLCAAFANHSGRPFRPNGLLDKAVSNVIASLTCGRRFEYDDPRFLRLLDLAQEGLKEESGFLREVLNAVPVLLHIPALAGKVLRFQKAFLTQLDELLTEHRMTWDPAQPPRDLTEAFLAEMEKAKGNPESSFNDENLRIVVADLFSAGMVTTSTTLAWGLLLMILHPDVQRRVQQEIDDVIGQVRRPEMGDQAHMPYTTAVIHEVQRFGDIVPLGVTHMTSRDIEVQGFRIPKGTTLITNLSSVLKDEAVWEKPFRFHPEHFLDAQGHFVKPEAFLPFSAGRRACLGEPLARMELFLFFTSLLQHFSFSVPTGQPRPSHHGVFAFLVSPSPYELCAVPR
structure (smiles),measurement,setting,value
N#Cc1nc(-c2ccc(OCc3ccc(Cl)cc3)cc2)oc1N1CCC(C(N)=O)CC1,IC50,[1],8.79 µM (active)
same,IC50,[2],> 66.6 µM (inactive)
same,IC50,[3],47.3 µM (active)
same,EC50,[4],7.04 µM (active)
same,IC50,[5],3.78 µM (active)
O=C(CSc1nc(-c2ccco2)cc(C(F)(F)F)n1)Nc1ccccc1C(F)(F)F,AC50,[6],5.71 µM (active)
same,AC50,[7],23.1 µM (active)
O=C(c1cccs1)N1CCn2c1nc1ccccc12,AC50,[8],115 µM (active)
Fc1ccc(C2=CC(c3ccc(Br)o3)n3ncnc3N2)cc1 (configuration not stated),AC50,[9],24 µM (active)
same,AC50,[10],10.8 µM (active)
Cc1ccc(C2Nc3cccc4cccc(c34)N2)s1,IC50,[11],15.3 µM (inactive)
Cn1c(=O)c2nc(SCc3ccccn3)[nH]c2n(C)c1=S,AC50,[12],0.0126 µM (inconclusive)
same,AC50,[13],inconclusive
CC(C)(C)c1cc[n+](-c2[n-]c(=O)sc2C=NN=C(S)Nc2ccccc2)cc1,AC50,[14],65.5 µM (active)
COC(=O)Cn1nc(-c2ccc(Cl)cc2)c2ccccc21,AC50,[15],2.16 µM (active)
O=c1c2ccccc2nc(/C=C/c2cccnc2)n1Cc1cccc(F)c1,IC50,[16],> 80 µM (inactive)
same,IC50,[17],> 80 µM (inactive)
